Data on nine compounds can be found in US12180193B2, “Accelerating fibrosarcoma protein degrading compounds and associated methods of use” (Arvinas Operations, Inc., priority 2020, dated 2024).

One assay deals with T1, BRAF V600E (Homo sapiens, UniProt P15056, V600E).
T1 construct: expressed in transfected cells
Briefly: Cellular assay of target protein degradation, T-Rex 293 cells stably transfected with HA-BRAF_V600E (HA immunofluorescence, high content imaging). The note with it: T-Rex 293 HA-BRAF V600E; for DC50: half maximal degradation, read-out: BRaf V600E DC50; for Dmax: maximum degradation observed. The class given is cell-based. The procedure:
Protocol for a cellular assay of target protein degradation (T-Rex 293 cells). T-Rex 293 cells were purchased from Invitrogen (#R71007), and stably transfected with a pcDNA4/TO_HA-BRAF_V600E construct, using 400 ug Zeocin for selection. V600e cells are plated in Dulbecco's Modified Eagle Medium (DMEM; Gibco #11965118) containing 10% fetal bovine serum (FBS; Gibco #16000044) and 1 ng/mL doxycycline (Selleckchem #4163) at a density of 5,000 cells/well in 50 μl on poly-D-lysine (PDL) coated, black clear bottom 96-well plates (Corning #354640) and incubated for 24 hours at 37° C. with 5% C02. The following day 50 ul of tested compound was added at 2x concentration in DMEM with a final concentration ranging from 1 μM to 0.1 nM in 0.1% dimethylsulfoxide (DMSO), and incubated for 24 hours at 37° C. with 5% CO2. At the end of the experimental treatment, the media was flicked off and cells washed once with phosphate-buffered saline (PBS)++ (PBS with CaCl and MgCl) and gently replacing with 200 μl PBS++ per well. The PBS++ was removed and 50 uL 4% paraformaldehyde (PFA; EMS #15710) in PBS++ was added, and incubate at room temperature for 15 minutes. Cells were washed once with PBS++ and 50 uL 0.1% Triton X-100 (Fisher #BP151-500) in PBS++ was added. Plate was incubate for 5 minutes at room temperature. Cells were was once with PBS++. Cells were blocked with 100 uL Licor blocking buffer (Licor #927-50000) for 1 hour at room temperature. Next, 50 uL of HA antibody (CST #3724) at 1:1000 in Licor blocking buffer was added, and the plate incubate overnight at 4° C. The plates were parafilmed to prevent evaporation. Plate was washed three times with 200 uL PBS++. Fifty microliters of HCS secondary antibody solution [1:1000 Hoechst (Invitrogen #H3570), 1:1000 phalloidin (Invitrogen #A22287) and 1:5000 Alexa fluor (Invitrogen #A11008)] was added and incubated for 1 hour. Plate was wash three times with 200 uL PBS++, and imaged on a high content reader (ImageXpress Micro XLS, Molecular Devices).
(§1) The concentration of exemplary compound that leads to half maximal degradation (DC50) as well as the maximum degradation observed (Dmax, conventionally expressed as a percentage of control), which are below in Table 2 for the exemplary compounds of Table 1.

The target of a further assay is T2, BRAF G466V (Homo sapiens, UniProt P15056, G466V).
T2 construct: expressed in transfected cells
Briefly: Cellular assay of target protein degradation, T-Rex 293 cells stably transfected with HA-BRAF G466V (HA immunofluorescence, high content imaging). The note with it: T-Rex 293 HA-BRAF G466V; for DC50: half maximal degradation, read-out: BRaf G466V DC50; for Dmax: maximum degradation observed. The assay is classed as cell-based. The procedure: Protocol for a cellular assay of target protein degradation (T-Rex 293 cells). T-Rex 293 cells were purchased from Invitrogen (#R71007), and stably transfected with a pcDNA4/TO_HA-BRAF G466V construct, using 400 ug Zeocin for selection. G466V cells are plated in Dulbecco's Modified Eagle Medium (DMEM; Gibco #11965118) containing 10% fetal bovine serum (FBS; Gibco #16000044) and 0.75 ng/mL doxycycline (Selleckchem #4163) at a density of 5,000 cells/well in 50 μl on poly-D-lysine (PDL) coated, black clear bottom 96-well plates (Corning #354640) and incubated for 24 hours at 37° C. with 5% CO2. The following day 50 ul of tested compound was added at 2x concentration in DMEM with a final concentration ranging from 30 nM to 3 pM in 0.1% dimethylsulfoxide (DMSO), and incubated for 24 hours at 37° C. with 5% CO2. At the end of the experimental treatment, the media was flicked off and cells washed once with phosphate-buffered saline (PBS)++ (PBS with CaCl and MgCl) and gently replacing with 200 μl PBS++ per well. The PBS++ was removed and 50 uL 4% paraformaldehyde (PFA; EMS #15710) in PBS++ was added, and incubate at room temperature for 15 minutes. Cells were washed once with PBS++ and 50 uL 0.1% Triton X-100 (Fisher #BP151-500) in PBS++ was added. Plate was incubate for 5 minutes at room temperature. Cells were was once with PBS++. Cells were blocked with 100 uL Licor blocking buffer (Licor #927-50000) for 1 hour at room temperature. Next, 50 uL of HA antibody (CST #3724) at 1:1000 in Licor blocking buffer was added, and the plate incubate overnight at 4° C. The plates were parafilmed to prevent evaporation. Plate was washed three times with 200 uL PBS++. Fifty microliters of HCS secondary antibody solution [1:1000 Hoechst (Invitrogen #H3570), 1:1000 phalloidin (Invitrogen #A22287) and 1:5000 Alexa fluor (Invitrogen #A11008)] was added and incubated for 1 hour. Plate was wash three times with 200 uL PBS++, and imaged on a high content reader (ImageXpress Micro XLS, Molecular Devices).
as §1

T1 sequence (P15056 whole entry V600E): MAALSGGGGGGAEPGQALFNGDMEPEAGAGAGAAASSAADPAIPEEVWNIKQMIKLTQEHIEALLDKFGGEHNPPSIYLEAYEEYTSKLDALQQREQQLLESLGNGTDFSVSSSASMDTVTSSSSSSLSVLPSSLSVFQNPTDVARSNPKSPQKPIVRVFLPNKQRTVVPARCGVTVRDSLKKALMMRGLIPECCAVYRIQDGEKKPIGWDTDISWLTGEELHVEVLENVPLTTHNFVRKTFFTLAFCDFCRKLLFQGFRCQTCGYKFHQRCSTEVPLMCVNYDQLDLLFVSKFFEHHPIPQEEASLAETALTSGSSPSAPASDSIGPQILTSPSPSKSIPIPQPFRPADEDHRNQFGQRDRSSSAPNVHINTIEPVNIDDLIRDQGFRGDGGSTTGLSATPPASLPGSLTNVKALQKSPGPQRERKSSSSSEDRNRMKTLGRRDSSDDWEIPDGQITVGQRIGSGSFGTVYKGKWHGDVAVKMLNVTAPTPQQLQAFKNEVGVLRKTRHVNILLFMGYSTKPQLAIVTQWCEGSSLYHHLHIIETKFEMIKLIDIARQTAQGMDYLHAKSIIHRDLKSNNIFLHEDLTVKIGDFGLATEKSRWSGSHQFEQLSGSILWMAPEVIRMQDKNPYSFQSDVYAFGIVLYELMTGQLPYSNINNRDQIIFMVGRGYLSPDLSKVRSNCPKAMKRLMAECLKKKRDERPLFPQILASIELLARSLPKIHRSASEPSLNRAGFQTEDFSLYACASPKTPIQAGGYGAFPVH
T2 sequence (P15056 whole entry G466V): as the sequence (P15056 whole entry V600E) above, with G466V, E600V counted along it

`O=C1CCC(N2Cc3cc(N4CCC(CN5CCN(c6ncc(-c7cnc8[nH]cc(C(=O)c9c(F)ccc(NS(=O)(=O)N%10CC[C@@H](F)C%10)c9F)c8c7)cn6)CC5)CC4)ccc3C2=O)C(=O)N1` (stereo partly drawn) [Compound 18, (3R)-N-[3-(5-{2-[4-({1-[2-(2,6-dioxopiperidin-3-yl)-1-oxo-2,3-dihydro-1H-isoindol-5-yl]piperidin-4-yl}methyl)piperazin-1-yl]pyrimidin-5-yl}-1H-pyrrolo[2,3-b]pyridine-3-carbonyl)-2,4-difluorophenyl]-3-fluoropyrrolidine-1-sulfonamide]: the DC50 is 50 to 500 nM at BRAF V600E and less than 1 nM at BRAF G466V. In addition, the Dmax on BRAF V600E was greater than 70%; on BRAF G466V, 35 to 70%.
The corresponding values for `O=C1CCC(N2Cc3cc(N4CCC(F)(CN5CC6(C5)CN(c5ccc(-c7cnc8[nH]cc(C(=O)c9c(F)ccc(NS(=O)(=O)N%10CC[C@@H](F)C%10)c9F)c8c7)cc5)C6)CC4)ccc3C2=O)C(=O)N1` (stereo partly drawn) [Compound 19, (3R)-N-[3-(5-{4-[6-({1-[2-(2,6-dioxopiperidin-3-yl)-1-oxo-2,3-dihydro-1H-isoindol-5-yl]-4-fluoropiperidin-4-yl}methyl)-2,6-diazaspiro[3.3]heptan-2-yl]phenyl}-1H-pyrrolo[2,3-b]pyridine-3-carbonyl)-2,4-difluorophenyl]-3-fluoropyrrolidine-1-sulfonamide] are 5 to 50 nM, 1 to 10 nM, 35 to 70% and 35 to 70%.
The like results for `COc1cc(N2CC3(C2)CN(CC2CCN(c4ccc(-c5cnc6[nH]cc(C(=O)c7c(F)ccc(NS(=O)(=O)N8CC[C@@H](F)C8)c7F)c6c5)cc4)CC2)[C@@H]3C)cc2c1C(=O)N(C1CCC(=O)NC1=O)C2` (stereo partly drawn) [Compound 20, (3R)-N-(3-{5-[4-(4-{[(1R)-6-[2-(2,6-dioxopiperidin-3-yl)-7-methoxy-1-oxo-2,3-dihydro-1H-isoindol-5-yl]-1-methyl-2,6-diazaspiro[3.3]heptan-2-yl]methyl}piperidin-1-yl)phenyl]-1H-pyrrolo[2,3-b]pyridine-3-carbonyl}-2,4-difluorophenyl)-3-fluoropyrrolidine-1-sulfonamide] were, in that order, 5 to 50 nM, less than 1 nM, 35 to 70% and 35 to 70%.
The corresponding values for `COc1cc(N2CC3(CN(CCc4ccc(-c5cnc6[nH]cc(C(=O)c7c(F)ccc(NS(=O)(=O)N8CC[C@@H](F)C8)c7F)c6c5)cc4)C3)C2)cc2c1C(=O)N(C1CCC(=O)NC1=O)C2` (stereo partly drawn) [Compound 21, (3R)-N-(3-{5-[4-(2-{6-[2-(2,6-dioxopiperidin-3-yl)-7-methoxy-1-oxo-2,3-dihydro-1H-isoindol-5-yl]-2,6-diazaspiro[3.3]heptan-2-yl}ethyl)phenyl]-1H-pyrrolo[2,3-b]pyridine-3-carbonyl}-2,4-difluorophenyl)-3-fluoropyrrolidine-1-sulfonamide] are 5 to 50 nM, 1 to 10 nM, 35 to 70% and 35 to 70%.
As for `COc1cc(CCCN2CC3(C2)CN(c2ccc(-c4cnc5[nH]cc(C(=O)c6c(F)ccc(NS(=O)(=O)N7CC[C@@H](F)C7)c6F)c5c4)cc2)C3)cc2c1C(=O)N(C1CCC(=O)NC1=O)C2` (stereo partly drawn) [Compound 22, (3R)-N-(3-{5-[4-(6-{3-[2-(2,6-dioxopiperidin-3-yl)-7-methoxy-1-oxo-2,3-dihydro-1H-isoindol-5-yl]propyl}-2,6-diazaspiro[3.3]heptan-2-yl)phenyl]-1H-pyrrolo[2,3-b]pyridine-3-carbonyl}-2,4-difluorophenyl)-3-fluoropyrrolidine-1-sulfonamide], on BRAF V600E, the half-maximal degradation concentration (DC50) is 5 to 50 nM and the maximal degradation (Dmax) lay in the range of 35 to 70%. Further, at BRAF G466V, the DC50 was less than 1 nM and the Dmax lay in the range of 35 to 70%.
Regarding `O=C1CCC(N2Cc3cc(N4CC[C@H]4COc4ccc(-c5cnc6[nH]cc(C(=O)c7c(F)ccc(NS(=O)(=O)N8CC[C@@H](F)C8)c7F)c6c5)cc4)ccc3C2=O)C(=O)N1` (stereo partly drawn) [Compound 23, (3R)-N-{3-[5-(4-{[(2S)-1-[2-(2,6-dioxopiperidin-3-yl)-1-oxo-2,3-dihydro-1H-isoindol-5-yl]azetidin-2-yl]methoxy}phenyl)-1H-pyrrolo[2,3-b]pyridine-3-carbonyl]-2,4-difluorophenyl}-3-fluoropyrrolidine-1-sulfonamide], the DC50 on BRAF V600E is greater than 500 nM; at BRAF G466V, greater than 30 nM.
For the compound `O=C1CCC(N2Cc3cc(N4CCC(CN5CCN(c6ccc(-c7cnc8[nH]cc(C(=O)c9c(F)ccc(NS(=O)(=O)N%10CC[C@@H](F)C%10)c9F)c8c7)cn6)CC5)CC4)ccc3C2=O)C(=O)N1` (stereo partly drawn) [Compound 25, (3R)-N-[3-(5-{6-[4-({1-[2-(2,6-dioxopiperidin-3-yl)-1-oxo-2,3-dihydro-1H-isoindol-5-yl]piperidin-4-yl}methyl)piperazin-1-yl]pyridin-3-yl}-1H-pyrrolo[2,3-b]pyridine-3-carbonyl)-2,4-difluorophenyl]-3-fluoropyrrolidine-1-sulfonamide], the half-maximal degradation concentration (DC50) at BRAF V600E was 5 to 50 nM; at BRAF G466V, less than 1 nM. Further, the Dmax on BRAF V600E is 35 to 70%; on BRAF G466V, greater than 70%.
With `O=C1CCC(N2Cc3cc(N4CC5(CN(c6ccc(-c7cnc8[nH]cc(C(=O)c9c(F)ccc(NS(=O)(=O)N%10CC[C@@H](F)C%10)c9F)c8c7)cc6)C5)C4)ccc3C2=O)C(=O)N1` (stereo partly drawn) [Compound 26, (3R)-N-{3-[5-(4-{6-[2-(2,6-dioxopiperidin-3-yl)-1-oxo-2,3-dihydro-1H-isoindol-5-yl]-2,6-diazaspiro[3.3]heptan-2-yl}phenyl)-1H-pyrrolo[2,3-b]pyridine-3-carbonyl]-2,4-difluorophenyl}-3-fluoropyrrolidine-1-sulfonamide], at BRAF V600E, the DC50 is greater than 500 nM and the Dmax is greater than 70%. Further, at BRAF G466V, the 50% degradation concentration (DC50) is less than 1 nM and the Dmax was in the range of 35 to 70%.
The like results for `O=C1CC[C@H](NC(=O)c2ccc(N3CCN(CCc4ccc(-c5cnc6[nH]cc(C(=O)c7c(F)ccc(NS(=O)(=O)N8CC[C@@H](F)C8)c7F)c6c5)cc4)CC3)cc2F)C(=O)N1` [Compound 27, 4-[4-[2-[4-[3-[2,6-difluoro-3-[[(3R)-3-fluoropyrrolidin-1-yl]sulfonylamino]benzoyl]-1H-pyrrolo[2,3-b]pyridin-5-yl]phenyl]ethyl]piperazin-1-yl]-N-[(3S)-2,6-dioxo-3-piperidyl]-2-fluoro-benzamide] were, in that order, 5 to 50 nM, greater than 70%, 1 to 10 nM and 35 to 70%.

The term DC50 denotes the concentration giving 50% degradation. A word on the Dmax: it is the largest share of the target that was removed.
